# Source: PubChem BioAssay (NCI)
#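 GI50 = concentration required for 50% inhibition of growth. TGI is the concentration that stops growth completely.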
# What was measured:
# Test in all cases: DTP human tumour cell line panel, 384-well format
# MOLT-4 leukemia = system: MOLT-4 leukemia
# NCI-H226 lung = system: NCI-H226 lung
# NCI-H23 lung = system: NCI-H23 lung
# NCI-H322M lung = system: NCI-H322M lung
# NCI-H460 NSCLC = system: NCI-H460 NSCLC
# NCI-H522 lung = system: NCI-H522 lung
# NCI/ADR-RES ovarian = system: NCI/ADR-RES ovarian
# OVCAR-3 ovarian = system: OVCAR-3 ovarian
# OVCAR-4 ovarian = system: OVCAR-4 ovarian
# OVCAR-5 ovarian = system: OVCAR-5 ovarian
# PC-3 prostate = system: PC-3 prostate
# RXF 393 renal = system: RXF 393 renal
# SF-268 CNS = system: SF-268 CNS
# SF-295 CNS = system: SF-295 CNS
# SK-MEL-2 melanoma = system: SK-MEL-2 melanoma
# SK-MEL-5 melanoma = system: SK-MEL-5 melanoma
# SK-OV-3 ovarian = system: SK-OV-3 ovarian
# SN12C renal = system: SN12C renal
# SNB-19 CNS = system: SNB-19 CNS
# SR leukemia = system: SR leukemia
# T-47D breast = system: T-47D breast
# U251 glioblastoma = system: U251 glioblastoma
# UACC-257 melanoma = system: UACC-257 melanoma
# UO-31 renal = system: UO-31 renal
structure (smiles),measurement,setting,value
Cn1ncc2cc(-c3cnc(N)c(Cl)c3N3CCC4(CCNC4=O)CC3)ccc21,TGI,MOLT-4 leukemia,23.8 µM
same,GI50,NCI-H226 lung,19.6 µM
same,TGI,NCI-H226 lung,53.7 µM
same,GI50,NCI-H23 lung,34.2 µM
same,TGI,NCI-H23 lung,> 80.3 µM
same,GI50,NCI-H322M lung,47.6 µM
same,TGI,NCI-H322M lung,> 100 µM
same,GI50,NCI-H460 NSCLC,35.9 µM
same,TGI,NCI-H460 NSCLC,> 100 µM
same,GI50,NCI-H522 lung,20.3 µM
same,TGI,NCI-H522 lung,> 100 µM
same,GI50,NCI/ADR-RES ovarian,31.4 µM
same,TGI,NCI/ADR-RES ovarian,> 83.3 µM
same,GI50,OVCAR-3 ovarian,23.5 µM
same,TGI,OVCAR-3 ovarian,> 100 µM
same,GI50,OVCAR-4 ovarian,97.1 µM
same,TGI,OVCAR-4 ovarian,> 100 µM
same,GI50,OVCAR-5 ovarian,51 µM
same,TGI,OVCAR-5 ovarian,> 100 µM
same,GI50,PC-3 prostate,28.3 µM
same,TGI,PC-3 prostate,> 96.5 µM
same,GI50,RXF 393 renal,18.6 µM
same,TGI,RXF 393 renal,42.9 µM
same,GI50,SF-268 CNS,41.9 µM
same,TGI,SF-268 CNS,> 100 µM
same,GI50,SF-295 CNS,46.1 µM
same,TGI,SF-295 CNS,> 100 µM
same,GI50,SK-MEL-2 melanoma,17.6 µM
same,TGI,SK-MEL-2 melanoma,47.1 µM
same,GI50,SK-MEL-5 melanoma,21.2 µM
same,TGI,SK-MEL-5 melanoma,48.7 µM
same,GI50,SK-OV-3 ovarian,29.9 µM
same,TGI,SK-OV-3 ovarian,> 93.3 µM
same,GI50,SN12C renal,48.2 µM
same,TGI,SN12C renal,> 100 µM
same,GI50,SNB-19 CNS,63.1 µM
same,TGI,SNB-19 CNS,> 100 µM
same,GI50,SR leukemia,8.79 µM
same,TGI,SR leukemia,21.7 µM
same,GI50,T-47D breast,21.5 µM
same,TGI,T-47D breast,> 96.1 µM
same,GI50,U251 glioblastoma,21.3 µM
same,TGI,U251 glioblastoma,> 100 µM
same,GI50,UACC-257 melanoma,15.4 µM
same,TGI,UACC-257 melanoma,31.8 µM
same,GI50,UO-31 renal,32.3 µM
same,TGI,UO-31 renal,> 100 µM
